In the experiment the target is T1, Axl (Homo sapiens, UniProt P30530).
T1 construct: endogenous in cells; host or cells: HeLa cells
T1 sequence (P30530 26-894): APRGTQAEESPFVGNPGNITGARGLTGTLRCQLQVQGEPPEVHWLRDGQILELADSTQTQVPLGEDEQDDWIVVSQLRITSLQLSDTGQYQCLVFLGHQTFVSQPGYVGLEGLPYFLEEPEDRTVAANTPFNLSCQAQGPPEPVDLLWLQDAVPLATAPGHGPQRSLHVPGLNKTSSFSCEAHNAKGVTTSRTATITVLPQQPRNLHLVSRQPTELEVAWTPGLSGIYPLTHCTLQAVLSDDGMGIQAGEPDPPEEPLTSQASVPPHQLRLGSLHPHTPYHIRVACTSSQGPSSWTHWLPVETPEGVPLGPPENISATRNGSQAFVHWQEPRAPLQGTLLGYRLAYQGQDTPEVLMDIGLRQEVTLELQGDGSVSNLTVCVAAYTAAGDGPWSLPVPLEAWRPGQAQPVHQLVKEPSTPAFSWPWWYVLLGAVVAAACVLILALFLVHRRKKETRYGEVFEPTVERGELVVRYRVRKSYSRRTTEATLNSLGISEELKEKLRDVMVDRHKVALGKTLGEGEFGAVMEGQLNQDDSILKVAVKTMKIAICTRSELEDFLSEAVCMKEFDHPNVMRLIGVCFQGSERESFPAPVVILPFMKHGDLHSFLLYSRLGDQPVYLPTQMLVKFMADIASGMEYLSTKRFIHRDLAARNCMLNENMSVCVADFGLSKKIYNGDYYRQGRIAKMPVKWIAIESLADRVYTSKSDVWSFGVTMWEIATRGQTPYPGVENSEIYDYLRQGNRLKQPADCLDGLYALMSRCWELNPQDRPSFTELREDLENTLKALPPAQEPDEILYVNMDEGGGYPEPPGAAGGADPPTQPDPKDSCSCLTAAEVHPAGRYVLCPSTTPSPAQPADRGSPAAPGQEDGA
The experiment can be described thus: Phospho-Akt In-Cell Western Assay (inhibition of Axl activity after Axl-antibody cross-linking). As to conditions: read-out: IC50. In kind it is cell-based. Put shortly: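 HeLa cells on poly-L-lysine, starved 24 h in 0.5% FCS DMEM with Axl/Fc 500 ng/mL, pre-treated with compound 1 h at 37 °C, then stimulated 5 min by anti-Axl/anti-mouse antibody cross-linking. Fixed cells probed for phospho-Akt with HRP secondary and chemiluminescent detection.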

Setting [1] is: Hela cells, phospho-Akt chemiluminescence normalized to relative cell number, compounds of formula (Ia), Table 1.
The mark [2] stands for this setting: inhibition of Axl activity, Table 1, compounds of formula (Ia).

Read-outs that look alike come from different tables or passages of the source.

With `CN1CCC2CN(c3ccc(Nc4nc(N)n(-c5cc6c(nn5)-c5ccccc5CCC6)n4)cc3F)CC21` (stereo not drawn) [Compound 81, 1-(6,7-dihydro-5H-benzo[6,7]cyclohepta[1,2-c]pyridazin-3-yl)-N^3-(3-fluoro-4-(1-methyl-octahydropyrrolo[3,4-b]pyrrol-5-yl)phenyl)-1H-1,2,4-triazole-3,5-diamine], the IC50 under setting [1] was below 1000 nM. The same measure, in the same setting: as for `Nc1nc(Nc2ccc3oc(CN4CCCC4)nc3c2)nn1-c1cc2c(nn1)-c1ccccc1OCC2` [Compound 118, 1-(6,7-dihydro-5H-benzo[2,3]oxepino[4,5-c]pyridazin-3-yl)-N^3-(2-(pyrrolidin-1-ylmethyl)benzo[d]oxazol-5-yl)-1H-1,2,4-triazole-3,5-diamine], the figure is 1000 to 10000 nM.

In the case of `Nc1nc(Nc2ccc3c(c2)CCC(N2CC[C@@H](O)C2)CC3)nn1-c1cc2c(nn1)-c1ccccc1CCC2` (stereo partly drawn) [Compound 219, 1-(6,7-dihydro-5H-benzo[6,7]cyclohepta[1,2-c]pyridazin-3-yl)-N^3-(7-(3-(R)-hydroxypyrrolidin-1-yl)-6,7,8,9-tetrahydro-5H-benzo[7]annulene-2-yl)-1H-1,2,4-triazole-3,5-diamine], the IC50 under setting [2] is below 1000 nM. On the same count and under the same terms, as for `Nc1nc(Nc2ccc3c(c2)CCC(NC2CCCC2)CC3)nn1-c1cc2c(nn1)-c1ccccc1CCC2` (stereo not drawn) [Compound 186, 1-(6,7-dihydro-5H-benzo[6,7]cyclohepta[1,2-c]pyridazin-3-yl)-N^3-(7-cyclopentylamino-6,7,8,9-tetrahydro-5H-benzo[7]annulene-2-yl)-1H-1,2,4-triazole-3,5-diamine], the figure is below 1000 nM; as for `CN1CCN(C2CCN(c3ccc(Nc4nc(N)n(-c5cc6c(nn5)-c5ccccc5OC65CCCC5)n4)cc3F)CC2)CC1` [Compound 175, 1-(spiro[chromeno[4,3-c]pyridazine-5,1′-cyclopentane]-3-yl)-N^3-(3-fluoro-4-(4-(4-methylpiperazin-1-yl)piperidin-1-yl)phenyl)-1H-1,2,4-triazole-3,5-diamine], 10000 to 20000 nM.

Take `Nc1nc(Nc2ccc(OCCN3CCCC3)c(F)c2)nn1-c1ncc2c(n1)-c1ccccc1CCC2` [Compound 44, 1-(6,7-dihydro-5H-benzo[6,7]cyclohepta[1,2-d]pyrimidin-2-yl)-N^3-(3-fluoro-4-(2-(pyrrolidin-1-yl)ethoxy)phenyl)-1H-1,2,4-triazole-3,5-diamine]: under setting [1], the IC50 is below 1000 nM. Consider `Nc1nc(Nc2ccc(C(=O)N3CCC(N4CCCCC4)CC3)nc2)nn1-c1cc2c(nn1)-c1ccccc1CCC2` [Compound 149, 1-(6,7-dihydro-5H-benzo[6,7]cyclohepta[1,2-c]pyridazin-3-yl)-N^3-(6-((4-piperidin-1-ylpiperidin-1-yl)carbonyl)pyridin-3-yl)-1H-1,2,4-triazole-3,5-diamine], for which the IC50 under setting [2] lay in the range of 1000 to 10000 nM. Same read-out and setting: the result for `Nc1nc(Nc2ccc3c(c2)CCC(N2CC[C@H](F)C2)CC3)nn1-c1cc2c(nn1)-c1ccccc1CCC2` (stereo partly drawn) [Compound 217, 1-(6,7-dihydro-5H-benzo[6,7]cyclohepta[1,2-c]pyridazin-3-yl)-N^3-(7-(3-(S)-fluoropyrrolidin-1-yl)-6,7,8,9-tetrahydro-5H-benzo[7]annulene-2-yl)-1H-1,2,4-triazole-3,5-diamine] reads below 1000 nM. In the case of `Nc1nc(Nc2ccc(N3CCC(N)CC3)c(F)c2)nn1-c1cc2c(nn1)-c1ccccc1CCC2` [Compound 87, 1-(6,7-dihydro-5H-benzo[6,7]cyclohepta[1,2-c]pyridazin-3-yl)-N^3-(3-fluoro-4-(4-aminopiperidin-1-yl)phenyl)-1H-1,2,4-triazole-3,5-diamine], the IC50 under setting [1] is below 1000 nM.

In the case of `CN(C)Cc1nc2cc(Nc3nc(N)nn3-c3cc4c(nn3)-c3ccccc3CCC4)ccc2[nH]1` [Compound 159, 1-(6,7-dihydro-5H-benzo[6,7]cyclohepta[1,2-c]pyridazin-3-yl)-N^5-(2-((dimethylamino)methyl)-1H-benzo[d]imidazol-5-yl)-1H-1,2,4-triazole-3,5-diamine], the IC50 (Hela cells, phospho-Akt chemiluminescence normalized to relative cell number, compounds of formula (Ib), Table 2) is above 20000 nM.

In the case of `CN1CCN(C2CCN(CC=Cc3ccc(Nc4nc(N)n(-c5cc6c(nn5)-c5ccccc5CCC6)n4)cc3)CC2)CC1` [Compound 196, 1-(6,7-dihydro-5H-benzo[6,7]cyclohepta[1,2-c]pyridazin-3-yl)-N^3-(4-(4-(4-methylpiperazin-1-yl)piperidin-1-ylprop-1-enyl)phenyl)-1H-1,2,4-triazole-3,5-diamine], under setting [2], the IC50 was below 1000 nM.

In the case of `CN1CC2CN(c3ccc(Nc4nc(N)n(-c5cc6c(nn5)-c5ccccc5CCC6)n4)cc3F)CC2C1` (stereo not drawn) [Compound 66, 1-(6,7-dihydro-5H-benzo[6,7]cyclohepta[1,2-c]pyridazin-3-yl)-N^3-(3-fluoro-4-(5-methyloctahydro-pyrrolo[3,4-c]pyrrolyl)phenyl)-1H-1,2,4-triazole-3,5-diamine], the IC50 under setting [1] was below 1000 nM. On the same count and under the same terms, the result for `CC1CCN(C2CCN(c3ccc(Nc4nc(N)n(-c5cc6c(nn5)-c5ccccc5CCC6)n4)cc3F)CC2)CC1` [Compound 59, 1-(6,7-dihydro-5H-benzo[6,7]cyclohepta[1,2-c]pyridazin-3-yl)-N^3-(3-fluoro-4-(4-(4-methylpiperidin-1-yl)piperidin-1-yl)phenyl)-1H-1,2,4-triazole-3,5-diamine] reads below 1000 nM. Take `Nc1nc(Nc2ccc(N3CCC(N4CCCC4)C3)c(F)c2)nn1-c1cc2c(nn1)-c1ccccc1CCC2` (stereo not drawn) [Compound 132, 1-(6,7-dihydro-5H-benzo[6,7]cyclohepta[1,2-c]pyridazin-3-yl)-N^3-(3-fluoro-(4-(3-pyrrolidin-1-yl)pyrrolidin-1-yl)phenyl)-1H-1,2,4-triazole-3,5-diamine]: under setting [2], the IC50 is below 1000 nM.

In the case of `CN1CCN(C2CCN(c3ccc(Nc4nc(N)n(-c5cc6c(nn5)-c5ccc(Cl)cc5CCC6)n4)cc3F)CC2)CC1` [Compound 144, 1-(6,7-dihydro-9-chloro-5H-benzo[6,7]cyclohepta[1,2-c]pyridazin-3-yl)-N^3-(3-fluoro-4-(4-(N-methylpiperazin-1-yl)piperidin-1-yl)phenyl)-1H-1,2,4-triazole-3,5-diamine], the IC50 under setting [2] lay in the range of 1000 to 10000 nM. On the same count and under the same terms, the result for `Nc1nc(Nc2ccc(CCCN3CCCCC3)nc2)nn1-c1cc2c(nn1)-c1ccccc1CCC2` [Compound 142, 1-(6,7-dihydro-5H-benzo[6,7]cyclohepta[1,2-c]pyridazin-3-yl)-N^3-(6-(3-piperidin-1-yl)-propanylpyridin-3-yl)-1H-1,2,4-triazole-3,5-diamine] reads below 1000 nM. The same measure, in the same setting: the result for `Nc1nc(Nc2ccc3c(c2)CCC(N2CCC(N4CCCC4)CC2)CC3)nn1-c1cc2c(nn1)-c1ccccc1CCC2` (stereo not drawn) [Compound 232, 1-(6,7-dihydro-5H-benzo[6,7]cyclohepta[1,2-c]pyridazin-3-yl)-N^3-(7-(4-pyrrolidin-1-ylpiperidin-1-yl)-6,7,8,9-tetrahydro-5H-benzo[7]annulene-2-yl)-1H-1,2,4-triazole-3,5-diamine] reads below 1000 nM.

`CS(=O)(=O)Nc1cccc(-c2ccc(Nc3nc(N)n(-c4cc5c(nn4)-c4ccccc4CCC5)n3)cn2)c1` [Compound 98, 1-(6,7-dihydro-5H-benzo[6,7]cyclohepta[1,2-c]pyridazin-3-yl)-N^3-(6-(3-methylsulfonamidylphenyl)-pyridine-3-yl)-1H-1,2,4-triazole-3,5-diamine]: the IC50 under setting [1] is above 20000 nM.

As for `CCN(CC)CCC1CCCc2ccc(Nc3nc(N)n(-c4cc5c(nn4)-c4ccccc4CCC5)n3)cc2C1O` (stereo not drawn) [Compound 208, 1-(6,7-dihydro-5H-benzo[6,7]cyclohepta[1,2-c]pyridazin-3-yl)-N^3-(8-diethylaminoethyl-9-hydroxy-6,7,8,9-tetrahydro-5H-benzo[7]annulene-2-yl)-1H-1,2,4-triazole-3,5-diamine], the IC50 under setting [2] fell in the range of 1000 to 10000 nM.

Take `CN1CCN(c2ccc(Nc3nc(N)n(-c4cc5c(nn4)-c4ccccc4CCC5)n3)cc2F)CC1` [Compound 209, 1-(6,7-dihydro-5H-benzo[6,7]cyclohepta[1,2-c]pyridazin-3-yl)-N^3-(3-fluoro-4-(4-methylpiperazin-1-yl)phenyl)-1H-1,2,4-triazole-3,5-diamine]: the IC50 under setting [2] was below 1000 nM. Regarding `CN1CCc2cc(-n3nc(Nc4ccc(N5CCN(C6CCCCC6)CC5)c(F)c4)nc3N)nnc2-c2ccccc21` [Compound 43, 1-(7-methyl-6,7-dihydro-5H-benzo[2,3]azepino[4,5-c]pyridazin-3-yl)-N^3-(3-fluoro-4-(4-cyclohexylpiperazinyl)phenyl)-1H-1,2,4-triazole-3,5-diamine], the IC50 under setting [1] was 1000 to 10000 nM.

Broadly, the IC50 is the point on the concentration scale where inhibition reaches its midpoint.

These data come from patent publication US7709482B2, “Polycyclic heteroaryl substituted triazoles useful as Axl inhibitors” (Rigel Pharmaceuticals, Inc., priority 2006, dated 2010).
